The results in this text go back to ChEMBL document CHEMBL1201862, “PubChem BioAssay data set” (2004).

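Each compound was tested at five concentrations against cells in 96-well plates for 48 hours. GI50 is the concentration that inhibits growth by half.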 Activity calls are given as the source filed them. Rule as the data show it: active = GI50 up to about 1.1 µM and inactive = higher. Where only a bound is given, the exact number is not on record here.

Common to all, as to assay: NCI tumour cell line growth inhibition, 48 h
Assay [1] relates to A549.
Assay [2] deals with BT-549.
Assay [3] has as its system RPMI-8226.
In assay [4] the test system is 786-0.
Assay [5] relates to NCI-H522.
Assay [6] has as its system MOLT-4.
Assay [7] relates to OVCAR-3.
The test system of assay [8] is SW-620.
For assay [9], the system named is HCT-116.
Assay [10] has as its system SF-539.
Assay [11] relates to OVCAR-5.
The subject of assay [12] is NCI-H226.
The subject of assay [13] is OVCAR-8.
Assay [14] has as its system CCRF-CEM.
Assay [15] concerns DU-145.
Assay [16] concerns M14.
The test system of assay [17] is Malme-3M.
In assay [18] the test system is T47D.
The test system of assay [19] is HT-29.
Assay [20] concerns SK-MEL-28.

Consider `C=C1C(=O)CCC1C(=O)O` (stereo not given), for which the GI50 in [1], in assay [2], in assay [3], in assay [4], in assay [5] and in assay [6] was > 100 µM (inactive) throughout. The GI50 in assay [7], in assay [8], in assay [9], in assay [10], in [11] and in [12] was > 100 µM (inactive) each time. In addition, the GI50 in assay [13], in [14], in assay [15], in assay [16], in [17] and in assay [18] was > 100 µM (inactive) in each case. For the same compound, the GI50 in [19] and in [20] was > 100 µM (inactive) in each case.

For `COC(=O)/C=C/[C@H]1[C@H](C)N1S(=O)(=O)c1ccc(C)cc1` (stereo not given in full), the GI50 in [1] was > 100 µM (inactive); in assay [2], > 100 µM (inactive); in assay [3], 51.6 µM (inactive); in assay [4] it was 82.4 µM (inactive); in assay [5], 48.6 µM (inactive); in assay [6], 70.5 µM (inactive). The GI50 is 58.7 µM (inactive) in [7]; 80.4 µM (inactive) in assay [8]; 41.8 µM (inactive) in assay [9]; 37 µM (inactive) in assay [10]; > 100 µM (inactive) in [11]; > 100 µM (inactive) in [12]. The GI50 is > 100 µM (inactive) in [13]; > 100 µM (inactive) in assay [14]; > 100 µM (inactive) in assay [15]; > 100 µM (inactive) in assay [16]; 50.2 µM (inactive) in [17]; > 100 µM (inactive) in [18]. For the same compound, the GI50 in assay [19] and in assay [20] was > 100 µM (inactive) each time.

In the case of `COC(=O)c1cccc(OC)c1C#Cc1c(OC)cccc1OC`, the GI50 in assay [1] is > 100 µM (inactive); in assay [2] it was > 100 µM (inactive); in assay [3] it was > 100 µM (inactive); in [4], > 100 µM (inactive); in assay [5], 0.47 µM (active); in assay [6], > 100 µM (inactive). Moreover, the GI50 in assay [7], in [8], in [9], in assay [10], in assay [11] and in assay [12] was > 100 µM (inactive) each time. In addition, the GI50 in [13] was > 100 µM (inactive); in [14], > 100 µM (inactive); in assay [15], > 100 µM (inactive); in assay [16] it was > 100 µM (inactive); in assay [17], > 100 µM (inactive); in assay [18], 76.2 µM (inactive). Moreover, the GI50 in assay [19] and in assay [20] was > 100 µM (inactive) in each case.
